From patent US7105521B2, “Eugenosedin-A based pharmacoligical agents” (Syn-Tech Chem & Pharm Co., Ltd., priority 2003, dated 2006) come the findings set out here.

Assay [1] in a line: Intra-cisternal injections: mean arterial BP and HR. It counts as in vivo, rats. As to the method: (§1) Intra-cisternal injections. […] Briefly, rats weighing 250–300 g were anaesthetized with pentobarbital sodium (50 mg kg^−1, i.p.) and mounted in a David-Kopf stereotaxic instrument (Yeh J L. et al., Brain. Res. Bull., 30:641–648, 1993). The calvarium was exposed and a 1 mm diameter trephine hole was drilled 1.8 mm lateral to the coronary and 1.5 mm posterior to the sagittal sutures. A cannula (0.7 mm O.D.) connected to a Hamilton syringe (RN-705, 5051) by PE-50 was advanced 4.7 mm into the brain using the electrode carrier.

A further assay has as its system α2-adrenoceptor. As to the kind of experiment: Intra-cisternal antagonism of clonidine-induced hypotension and bradycardia. It counts as in vivo, rats. Here is the method:
as §1

The next assay concerns the target T1, β1 receptors (Rattus norvegicus, UniProt P18090).
T1 construct: with [^3H]CGP-12177 on β1 receptors in rat ventricle; from tissue; host or cells: Wistar rat heart (ventricle) membranes
Put plainly: Receptor binding, [3H]CGP-12177, rat ventricle. On the set-up: species or system Wistar rat. As to the method: Drugs and chemicals. […] Eugenosedin-A synthesized in this laboratory was solvated in 50% absolute alcohol, 10% propylene glycol and further diluted with distilled water. All of the [^3H] ligand was purchased from New England Nuclear Corp. (Boston, Mass., U.S.A.).
Receptor binding studies. […] The homogenate was pressure filtered through muslin. Filtrate was centrifuged at 1000 g for 10 min. Supernatant was centrifuged at 10,000 g for 12 min at 4° C. The second supernatant was centrifuged at 30,000 g for 15 min at 4° C. The final pellet was re-suspended in assay buffer (75 mM Tris HCl, 25 mM MgCl2, pH 7.4). Protein content was determined by Bradford's method. Radioligand agents and membranes (200–300 μg) were incubated for 60 min at 25° C. with or without the addition of nonspecific binding agents, in a 75 mM Tris HCl buffer with 25 mM MgCl2, to make a final volume of 500 μl. In competitive-binding experiments, the competing agent was added directly to the incubation mixture. […] Membrane-bound radioligand trapped in the filters was counted in a Beckman LS6500 scintillation system (Fullerton, Calif., U.S.A) with an efficiency of 45%. In each experiment, nonspecifically bound radioligand agents were determined by incubating membrane protein. […]

Another assay concerns the target T2, 5-HT re-uptake sites (Rattus norvegicus, UniProt P31652).
T2 construct: the cerebral cortex or striatum was dissected and crude synaptosomes were prepared; from tissue; host or cells: crude synaptosomes of Wistar rat cerebral cortex
As to the kind of experiment: 5-HT re-uptake in cerebral cortex synaptosomes. In kind it is biochemical, Wistar rats. Here is the method:
Saline was added to the incubation mixture, which was then filtered through a Whatman GF/B glass filter under reduced pressure. To determine nonspecific uptake, incubation was performed at 0° C.

The subject of assay [2] is Fe2+-ascorbic acid-induced lipid peroxidation. Put plainly: Lipid peroxidation (TBARS) in rat brain homogenate. In kind it is biochemical. The following applies: n=5, read-out: IC50 of inhibition of Fe2+-ascorbic acid-induced lipid peroxidation. As to the method:
Antioxidant and peroxyl radical scavenging activities. Rat brain homogenate was made in 0.9% saline containing 10 mg tissue/ml. The rates of membrane lipid peroxidation were measured by the formation of thiobarbituric acid (TBA)-reactive substance (TBARS). Rat brain homogenates (1 ml) were incubated at 37° C. for 5 min with 10 μl of test compound or vehicle. Lipid peroxidation was initiated by the addition of 0.1 ml of 0.25 mM FeCl2 and 1 mM ascorbic acid (Huang Y C. et al., Drug. Dev. Res., 47:77–89, 1999). After 30 min of incubation, the reaction was stopped by adding 0.1 ml of 0.2% BHT. TBA reagent was then added and the mixture was heated for 30 min in a boiling water bath. TBARS was extracted by n-butanol and measured at 532 nm. The amount of TBARS was quantified using the linear regression obtained from malondialdehyde (MDA) standards.

A short description of assay [3]: Peroxyl radical scavenging, B-phycoerythrin/AAPH. In kind it is biochemical. Here is the method: The stoichiometric factors of the test compounds with hydrophilic peroxyl radicals were calculated by the equation as mentioned Ascorbic acid was used as a positive control.
The nature of another assay: LPS-induced hypotension. In kind it is in vivo, Wistar rats. The following applies: LPS 10 mg kg^−1 i.v. Here is the method: Intravenous injection. The experiments were carried out as previously described (Wu B N. et al., Biochem. Pharmacol., 48:101–109, 1994). In brief, Wistar rats weighing 250–300 grams were anesthetized with pentobarbital sodium (50 mg kg^−1, i.p.). Following tracheal cannulation, systemic arterial BP and HR were recorded from the femoral artery by a pressure transducer (model P10EZ; Spectramed, Oxnard, Calif., U.S.A.) connected to a recorder (GOULD, Valley View, Ohio, Model P50). Body temperature was maintained at 37° C. by an electric heating pad. A femoral vein was cannulated for intravenous injection of drugs and LPS (10 mg kg^−1).

Assay [4] can be described thus: LPS-induced vascular hyporeactivity of isolated aorta to phenylephrine. In kind it is in vivo, rats. An excerpt:
Isolation of rat thoracic aorta. Rat thoracic aorta was removed, cleaned of adhering fat and connective tissue and cut into 3–4 mm wide transverse rings.

In a further assay the test system is IL-6. Put plainly: Plasma cytokine immunoreactivity after LPS: IL-6. In kind it is in vivo, Wistar rats. The conditions noted are these: 3 hours after LPS 10 mg kg^−1 i.v.; pretreatment 1 mg kg^−1 i.v. As to the method:
(§2) Plasma cytokine immunoreactivity and blood glucose. Blood was collected from venous cannula, injected into ice-cold heparinized Eppendorf tubes and centrifuged at 1500 rpm for 10 min at 4° C. Plasma supernatant was stored at −70° C. until analyzed. Solid phase enzyme immunoassay that specifically detects murine IL-1β, IL-6, IFN-γ and TNF-α was used with a detection limit of >10 pg/ml (Endogen, U.S.A). Pretreatment with eugenosedin-A and other agents was performed 15 minutes before intravenous injection of LPS. Blood was collected from venous cannula. Blood glucose was measured with a glucose test strip (Glucotide, Bayer, U.S.A) at 1, 3 and 5 hours.

The next assay can be described thus: Blood glucose after LPS. In kind it is in vivo, Wistar rats. Here is the method: as §2

T1 sequence (P18090 whole entry): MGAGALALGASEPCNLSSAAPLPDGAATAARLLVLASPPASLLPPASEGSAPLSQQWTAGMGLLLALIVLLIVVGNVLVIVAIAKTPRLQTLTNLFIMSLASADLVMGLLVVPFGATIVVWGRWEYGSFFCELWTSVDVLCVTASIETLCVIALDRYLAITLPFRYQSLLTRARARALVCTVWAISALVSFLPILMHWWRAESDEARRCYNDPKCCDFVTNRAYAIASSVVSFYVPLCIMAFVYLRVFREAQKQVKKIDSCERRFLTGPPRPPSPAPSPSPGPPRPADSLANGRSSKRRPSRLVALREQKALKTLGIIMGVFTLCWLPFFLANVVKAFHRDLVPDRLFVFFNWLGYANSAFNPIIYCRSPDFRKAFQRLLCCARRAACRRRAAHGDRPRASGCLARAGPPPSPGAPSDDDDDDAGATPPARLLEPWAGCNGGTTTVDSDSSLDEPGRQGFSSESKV
T2 sequence (P31652 whole entry): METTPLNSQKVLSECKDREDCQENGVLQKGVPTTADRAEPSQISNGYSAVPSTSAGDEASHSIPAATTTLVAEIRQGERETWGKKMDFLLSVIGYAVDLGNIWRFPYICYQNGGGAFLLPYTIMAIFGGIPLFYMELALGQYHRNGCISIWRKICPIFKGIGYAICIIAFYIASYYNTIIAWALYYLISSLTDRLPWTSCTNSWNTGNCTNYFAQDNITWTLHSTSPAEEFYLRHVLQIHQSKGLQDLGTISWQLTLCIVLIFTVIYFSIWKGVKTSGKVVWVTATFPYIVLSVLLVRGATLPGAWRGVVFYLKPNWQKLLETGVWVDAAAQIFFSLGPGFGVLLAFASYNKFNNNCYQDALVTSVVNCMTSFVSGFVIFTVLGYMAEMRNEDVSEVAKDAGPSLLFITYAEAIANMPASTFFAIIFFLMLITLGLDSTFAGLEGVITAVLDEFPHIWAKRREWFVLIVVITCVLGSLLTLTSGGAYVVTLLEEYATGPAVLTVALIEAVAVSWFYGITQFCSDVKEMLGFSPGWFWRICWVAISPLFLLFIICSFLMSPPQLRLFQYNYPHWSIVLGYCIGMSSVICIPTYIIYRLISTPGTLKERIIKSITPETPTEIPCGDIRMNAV

Broadly, the IC50 is the concentration at which inhibition is half-maximal. `CC=Cc1ccc(OCC(O)CN2CCN(c3ccccc3Cl)CC2)c(OC)c1` (stereo not shown) [eugenosedin-A]: the “increase of HR” value in [1] (0.3 μmol) is given as “up to 60 bpm”. Further, the pressor response result in [1] (0.3 μmol) is on record as “up to 15 mmHg”. Besides, the “effect on mean arterial BP and HR” value in [1] (eugenosedin-A and trazodone 0.3, 0.03 μmol, yohimbine 0.03 μmol) is “increased mean arterial BP and HR”. For the same molecule, in the assay with α2-adrenoceptor (0.3 μmol), the “bradycardic effect of clonidine” value is on record as “reduced the bradycardic effect of clonidine”. Moreover, the “hypotensive effect of clonidine” value in the assay on α2-adrenoceptor (given 15 min before clonidine injection) is listed as “antagonized the hypotensive effect of clonidine”. For the same molecule, the clonidine-induced bradycardia entry in the assay with α2-adrenoceptor (low dose, 0.03 μmol) is on record as “did not inhibit clonidine-induced bradycardia”. Besides, the “binding affinity for β1-adrenoceptors” value on β1 receptors is recorded as “some binding affinity for β1-adrenoceptors”. The values for the IC50 (against 5-HT re-uptake sites; in assay [2]) were 34.3 µM and 2.68 ± 0.05 µM, respectively. Also, the “scavenging of AAPH-derived peroxyl radicals (B-phycoerythrin fluorescence, lag time)” value in [3] was “concentration-dependent decrement of fluorescence and prolongation of the lag time”. In addition, the “development of hypotension after LPS injection and normalization of BP” value in “LPS-induced hypotension” (i.v. pretreatment) was “normalized BP within 5 hours”. Moreover, the entries for the “first immediate hypotensive phase after LPS” value in “LPS-induced hypotension” (pretreatment 0.5 mg kg^−1 i.v.) and in “LPS-induced hypotension” (pretreatment 1 mg kg^−1 i.v.) were “not affected” and “attenuated it”, respectively. Further, the “second prolonged hypotensive phase after LPS” value in the assay “LPS-induced hypotension” (pretreatment 0.5 and 1 mg kg^−1 i.v.) is reported as “significantly reduced”. Also, the “aortic contractility to phenylephrine in LPS-treated rats” value in assay [4] (1 mg kg^−1 i.v. before or after LPS, phenylephrine 10^−8~10^−4 M) is on record as “increased aortic contractility more than the vehicle group”. Further, in assay [4] (rat, in vivo), the “protection from LPS-induced hyporeactivity of the aorta compared with yohimbine, trazodone, aminoguanidine and ascorbic acid” value is recorded as “more effective”. Further, in the assay on IL-6, the “LPS-induced increase in IL-6” value is on record as “significantly inhibited”. The “initial hyperglycemic response to LPS” value in the assay “Blood glucose after LPS” (blood glucose at 1 and 3 hours after LPS) was “inhibited the initial hyperglycemic response to LPS”. Further, in the assay “Blood glucose after LPS” (blood glucose at 5 hours after LPS), the “hypoglycemic response to LPS” value is reported as “did not reverse the hypoglycemic response”.
